Data taken from patent publication US10112899B2 (ViiV HEALTHCARE UK LIMITED, priority 2014, dated 2018).

tested on: HIV in the HTLV-1 transformed cell line MT-4; assay: organism not typed; type: cell-based; conditions: MT4, 96 h, MT-4 cells; luciferase/cell titer glo readout after 96 hours; 10 point dose response

SMILES | IC50 [nM]
COc1cccc(C(=O)N2Cc3c(C)c(-c4cc(F)c5c(c4C)CCCO5)c([C@H](OC(C)(C)C)C(=O)O)c(C)c3C2)c1F (atropisomer, axis not shown; (M)) [Example 148, (S)-2-(tert-butoxy)-2-((M)-2-(2-fluoro-3-methoxybenzoyl)-6-(8-fluoro-5-methylchroman-6-yl)-4,7-dimethylisoindolin-5-yl)acetic acid] | 9
Cc1cccc(C(=O)N2Cc3c(C)c(-c4cc(F)c5c(c4C)CCCO5)c([C@H](OC(C)(C)C)C(=O)O)c(C)c3C2)c1 (atropisomer, axis not shown; (M)) [Example 149, (S)-2-(tert-butoxy)-2-((M)-6-(8-fluoro-5-methylchroman-6-yl)-4,7-dimethyl-2-(3-methylbenzoyl)isoindolin-5-yl)acetic acid] | 2
COc1ccc(F)cc1C(=O)N1Cc2c(C)c(-c3cc(F)c4c(c3C)CCCO4)c([C@H](OC(C)(C)C)C(=O)O)c(C)c2C1 (atropisomer, axis not shown; (M)) [Example 150, (S)-2-(tert-butoxy)-2-((M)-2-(5-fluoro-2-methoxybenzoyl)-6-(8-fluoro-5-methylchroman-6-yl)-4,7-dimethylisoindolin-5-yl)acetic acid] | 4
Cc1c(-c2c(C)c3c(c(C)c2[C@H](OC(C)(C)C)C(=O)O)CN(C(=O)c2cccc4sccc24)C3)cc(F)c2c1CCCO2 (atropisomer, axis not shown; (M)) [Example 151, (S)-2-((M)-2-(benzo[b]thiophene-4-carbonyl)-6-(8-fluoro-5-methylchroman-6-yl)-4,7-dimethylisoindolin-5-yl)-2-(tert-butoxy)acetic acid] | 5
Cc1c(-c2c(C)c3c(c(C)c2[C@H](OC(C)(C)C)C(=O)O)CN(C(=O)c2cccc4c2OCC4)C3)cc(F)c2c1CCCO2 (atropisomer, axis not shown; (M)) [Example 152, (S)-2-(tert-butoxy)-2-((M)-2-(2,3-dihydrobenzofuran-7-carbonyl)-6-(8-fluoro-5-methylchroman-6-yl)-4,7-dimethylisoindolin-5-yl)acetic acid] | 2
Cc1c(-c2c(C)c3c(c(C)c2[C@H](OC(C)(C)C)C(=O)O)CN(C(=O)c2cccc4c2OCCO4)C3)cc(F)c2c1CCCO2 (atropisomer, axis not shown; (M)) [Example 153, (S)-2-(tert-butoxy)-2-((M)-2-(2,3-dihydrobenzo[b][1,4]dioxine-5-carbonyl)-6-(8-fluoro-5-methylchroman-6-yl)-4,7-dimethylisoindolin-5-yl)acetic acid] | 4
Cc1c(-c2c(C)c3c(c(C)c2[C@H](OC(C)(C)C)C(=O)O)CN(C(=O)c2ccc4c(cnn4C)c2)C3)cc(F)c2c1CCCO2 (atropisomer, axis not shown; (M)) [Example 154, (S)-2-(tert-butoxy)-2-((M)-6-(8-fluoro-5-methylchroman-6-yl)-4,7-dimethyl-2-(1-methyl-1H-indazole-5-carbonyl)isoindolin-5-yl)acetic acid] | 8
Cc1c(-c2c(C)c3c(c(C)c2[C@H](OC(C)(C)C)C(=O)O)CN(C(=O)c2ccccc2C(C)(C)C)C3)cc(F)c2c1CCCO2 (atropisomer, axis not shown; (M)) [Example 155, (S)-2-(tert-butoxy)-2-(2-(2-(tert-butyl)benzoyl)-6-((M)-8-fluoro-5-methylchroman-6-yl)-4,7-dimethylisoindolin-5-yl)acetic acid] | 48
COc1cc(C(=O)N2Cc3c(C)c(-c4cc(F)c5c(c4C)CCCO5)c([C@H](OC(C)(C)C)C(=O)O)c(C)c3C2)ccc1C (atropisomer, axis not shown; (M)) [Example 156, (S)-2-(tert-butoxy)-2-(6-((M)-8-fluoro-5-methylchroman-6-yl)-2-(3-methoxy-4-methylbenzoyl)-4,7-dimethylisoindolin-5-yl)acetic acid] | 3
